Test results: patent US8680159B2, “Bradykinin 1 receptor modulating compounds” (Gruenenthal GmbH, priority 2010, dated 2014)

Legend:
[1] = target: T1, B1R receptor of the rat (CHO K1 cells stably transfected with the B1R gene of the rat) (Rattus norvegicus, UniProt P97583); experiment: Functional study on the bradykinin receptor 1 (B1R), Ca2+ fluorescence (Fluo-4) FLIPR/Novostar assay, rB1R cells; format: cell-based; details: CHO-K1, 10 μM, read-out: % inhibition (rat B1R) at 10 μM
T1 construct: expressed in transfected cells; host or cells: CHO K1 cells (Chinese hamster ovary), stably transfected
T1 sequence (P97583 1-337): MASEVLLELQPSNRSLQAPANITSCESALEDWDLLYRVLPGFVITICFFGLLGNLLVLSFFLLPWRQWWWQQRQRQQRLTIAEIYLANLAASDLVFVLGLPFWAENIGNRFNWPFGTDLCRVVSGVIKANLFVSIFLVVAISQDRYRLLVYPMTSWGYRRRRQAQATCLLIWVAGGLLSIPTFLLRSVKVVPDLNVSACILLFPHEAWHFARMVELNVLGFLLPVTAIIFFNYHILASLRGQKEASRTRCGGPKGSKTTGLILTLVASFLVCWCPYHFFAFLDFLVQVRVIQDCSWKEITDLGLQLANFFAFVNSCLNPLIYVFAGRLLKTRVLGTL
Method in brief: (§1)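 Ca2+ influx (Fluo-4, peak fluorescence, λex 488/λem 540 nm) was measured in CHO K1 lines expressing rat or human B1R. After a 10 μM test-compound pre-addition scoring % activation, cells received EC80 agonist: Des-Arg9-bradykinin for rat, Lys-Des-Arg9-bradykinin for human. Antagonism was expressed as % of maximum inhibition, with IC50 from varied concentrations.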

[2] = target: T2, human B1R receptor (CHO K1 cells stably transfected with the human B1R gene) (Homo sapiens, UniProt P46663); experiment: Functional study on the bradykinin receptor 1 (B1R), Ca2+ fluorescence (Fluo-4) FLIPR/Novostar assay, hB1R cells; format: cell-based; details: CHO-K1, read-out: % inhibition (human B1R) at 10 μM
T2 construct: expressed in transfected cells; host or cells: CHO K1 cells (Chinese hamster ovary), stably transfected
T2 sequence (P46663 1-353): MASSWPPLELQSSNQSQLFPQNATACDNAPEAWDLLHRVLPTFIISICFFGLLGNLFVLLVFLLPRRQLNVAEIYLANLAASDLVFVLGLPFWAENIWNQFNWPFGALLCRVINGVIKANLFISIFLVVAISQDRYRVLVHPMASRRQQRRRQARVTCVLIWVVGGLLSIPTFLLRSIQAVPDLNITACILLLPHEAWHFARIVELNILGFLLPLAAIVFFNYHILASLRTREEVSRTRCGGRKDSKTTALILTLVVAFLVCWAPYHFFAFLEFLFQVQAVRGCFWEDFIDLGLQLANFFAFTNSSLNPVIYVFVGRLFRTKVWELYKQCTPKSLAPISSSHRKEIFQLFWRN
Method in brief: as §1

SMILES | inhibition at 10 µM [1] [%] | inhibition at 10 µM [2] [%]
CN(C(=O)c1ccc2c(c1)[C@H](NC(=O)c1ccccc1Cl)CC2)C1CCN(c2ccnc(N3CCCC3)c2)CC1 [Example H-124, (3R)-3-[(2-Chloro-benzoyl)amino]-N-methyl-N-[1-(2-pyrrolidin-1-yl-pyridin-4-yl)-piperidin-4-yl]-2,3-dihydro-1H-indene-5-carboxylic acid amide] | 108 | 100
Cc1nsc(N2CCC(N(C)C(=O)c3ccc4c(c3)[C@H](NC(=O)c3ccccc3Cl)CC4)CC2)n1 [Example H-125, (3R)-3-[(2-Chloro-benzoyl)amino]-N-methyl-N-[1-(3-methyl-[1,2,4]thiadiazol-5-yl)-piperidin-4-yl]-2,3-dihydro-1H-indene-5-carboxylic acid amide] | 104 | 70
COc1nc(C)cc(N2CCC(N(C)C(=O)c3ccc4c(c3)[C@H](NC(=O)c3ccccc3Cl)CC4)CC2)n1 [Example H-126, (3R)-3-[(2-Chloro-benzoyl)amino]-N-[1-(2-methoxy-6-methyl-pyrimidin-4-yl)-piperidin-4-yl]-N-methyl-2,3-dihydro-1H-indene-5-carboxylic acid amide] | 104 | 100
CN(C(=O)c1ccc2c(c1)[C@H](NC(=O)c1ccccc1Cl)CC2)C1CCN(c2ncnc3ccccc23)CC1 [Example H-127, (3R)-3-[(2-Chloro-benzoyl)amino]-N-methyl-N-(1-quinazolin-4-yl-piperidin-4-yl)-2,3-dihydro-1H-indene-5-carboxylic acid amide] | 91 | 96
Cc1cc(N2CCC(N(C)C(=O)c3ccc4c(c3)[C@H](NC(=O)c3ccccc3F)CC4)CC2)nc(C)n1 [Example H-128, (3R)-N-[1-(2,6-Dimethyl-pyrimidin-4-yl)-piperidin-4-yl]-3-[(2-fluoro-benzoyl)amino]-N-methyl-2,3-dihydro-1H-indene-5-carboxylic acid amide] | 100 | 99
Cc1cc(N2CCC(N(C)C(=O)c3ccc4c(c3)[C@H](NC(=O)c3cccc(F)c3Cl)CC4)CC2)nc(C)n1 [Example H-129, (3R)-3-[(2-Chloro-3-fluoro-benzoyl)amino]-N-[1-(2,6-dimethyl-pyrimidin-4-yl)-piperidin-4-yl]-N-methyl-2,3-dihydro-1H-indene-5-carboxylic acid amide] | 98 | 100
Cc1cc(N2CCC(N(C)C(=O)c3ccc4c(c3)[C@H](N3Cc5cccc(Cl)c5C3=O)CC4)CC2)nc(C)n1 [Example H-130, (3R)-3-(4-Chloro-3-oxo-1,2-dihydro-isoindol-2-yl)-N-[1-(2,6-dimethyl-pyrimidin-4-yl)-piperidin-4-yl]-N-methyl-2,3-dihydro-1H-indene-5-carboxylic acid amide] | 101 | 99
COc1c(C)cnc(CN2CCC(N(C)C(=O)c3ccc4c(c3)[C@H](NC(=O)c3ccccc3Cl)CC4)CC2)c1C [Example H-131, (3R)-3-[(2-Chloro-benzoyl)amino]-N-[1-[(4-methoxy-3,5-dimethyl-pyridin-2-yl)-methyl]-piperidin-4-yl]-N-methyl-2,3-dihydro-1H-indene-5-carboxylic acid amide] | 77 | 55
Cc1cc(N2CCC(N(C)C(=O)c3ccc4c(c3)[C@H](NC(=O)c3ccccc3C(F)(F)F)CC4)CC2)nc(C)n1 [Example H-132, (3R)-N-[1-(2,6-Dimethyl-pyrimidin-4-yl)-piperidin-4-yl]-N-methyl-3-[[2-(trifluoromethyl)-benzoyl]amino]-2,3-dihydro-1H-indene-5-carboxylic acid amide] | 99 | 99
Cc1cc(N2CCC(N(C)C(=O)c3ccc4c(c3)[C@H](NC(=O)c3cc(F)ccc3Cl)CC4)CC2)nc(C)n1 [Example H-133, (3R)-3-[(2-Chloro-5-fluoro-benzoyl)amino]-N-[1-(2,6-dimethyl-pyrimidin-4-yl)-piperidin-4-yl]-N-methyl-2,3-dihydro-1H-indene-5-carboxylic acid amide] | 100 | 99
Cc1cc(CN2CCC(N(C)C(=O)c3ccc4c(c3)[C@H](NC(=O)c3ccccc3Cl)CC4)CC2)on1 [Example H-134, (3R)-3-[(2-Chloro-benzoyl)amino] N-methyl-N-[1-[(3-methyl-isoxazol-5-yl)-methyl]-piperidin-4-yl]-2,3-dihydro-1H-indene-5-carboxylic acid amide] | 55 | 8
Cc1cc(N2CCC(N(C)C(=O)c3ccc4c(c3)[C@H](NC(=O)c3cccc(C(F)(F)F)c3Cl)CC4)CC2)nc(C)n1 [Example H-135, (3R)-3-[[2-Chloro-3-(trifluoromethyl)-benzoyl]amino]-N-[1-(2,6-dimethyl-pyrimidin-4-yl)-piperidin-4-yl]-N-methyl-2,3-dihydro-1H-indene-5-carboxylic acid amide] | 106 | 99
CN(CC1CCN(c2ccncn2)CC1)C(=O)c1ccc2c(c1)[C@H](NC(=O)c1ccccc1Cl)CC2 [Example H-136, (3R)-3-[(2-Chloro-benzoyl)amino]-N-methy-N-[(1-pyrimidin-4-yl-piperidin-4-yl)-methyl]-2,3-dihydro-1H-indene-5-carboxylic acid amide] | 107 | 41
Cc1cc(N2CCC(N(C)C(=O)c3ccc4c(c3)[C@H](NC(=O)c3cc(C(F)(F)F)ccc3Cl)CC4)CC2)nc(C)n1 [Example H-137, (3R)-3-[[2-Chloro-5-(trifluoromethyl)-benzoyl]amino]-N-[1-(2,6-dimethyl-pyrimidin-4-yl)-piperidin-4-yl]-N-methyl-2,3-dihydro-1H-indene-5-carboxylic acid amide] | 109 | 99
CN1CCN(C(=O)CN2CCC(N(C)C(=O)c3ccc4c(c3)[C@H](NC(=O)c3ccccc3Cl)CC4)CC2)CC1 [Example H-138, (3R)-3-[(2-Chloro-benzoyl)amino]-N-methyl-N-[1-[2-(4-methyl-piperazin-l-yl)-2-oxo-ethyl]-piperidin-4-yl]-2,3-dihydro-1H-indene-5-carboxylic acid amide] | 41 | 91
Cc1cc(N2CCC(N(C)C(=O)c3ccc4c(c3)[C@H](NC(=O)c3ccccc3Cl)CC4)CC2)nc(C(C)C)n1 [Example H-139, (3R)-3-[(2-Chloro-benzoyl)amino]-N-[1-(2-isopropyl-6-methyl-pyrimidin-4-yl)-piperidin-4-yl]-N-methyl-2,3-dihydro-1H-indene-5-carboxylic acid amide] | 97 | 100
CN(C(=O)c1ccc2c(c1)[C@H](NC(=O)c1ccccc1Cl)CC2)C1CCN(CC(=O)N2CCCC2)CC1 [Example H-140, (3R)-3-[(2-Chloro-benzoyl)amino]-N-methyl-N-[1-(2-oxo-2-pyrrolidin-1-yl-ethyl)-piperidin-4-yl]-2,3-dihydro-1H-indene-5-carboxylic acid amide] | 49 | 47
Cc1cc(N2CCC(N(C)C(=O)c3ccc4c(c3)[C@H](NC(=O)c3ccccc3Cl)CC4)CC2)ncn1 [Example H-141, (3R)-3-[(2-Chloro-benzoyl)amino]-N-methyl-N-[1-(6-methyl-pyrimidin-4-yl)-piperidin-4-yl]-2,3-dihydro-1H-indene-5-carboxylic acid amide] | 105 | 99
Cc1cc(N2CCC(N(C)C(=O)c3cc4c(cc3F)[C@H](N3Cc5cccc(Cl)c5C3=O)CC4)CC2)nc(C)n1 [Example H-142, (1R)-1-(4-Chloro-3-oxo-1,2-dihydro-isoindol-2-yl)-N-[1-(2,6-dimethyl-pyrimidin-4-yl)-piperidin-4-yl]-6-fluoro-N-methyl-2,3-dihydro-1H-indene-5-carboxylic acid amide] | 98 | 99
Cc1cc(N2CCC(N(C)C(=O)c3cc4c(cc3F)[C@H](NC(=O)c3cc(C)on3)CC4)CC2)nc(C)n1 [Example H-143, N-[(1R)-5-[[1-(2,6-Dimethyl-pyrimidin-4-yl)-piperidin-4-yl]-methyl-carbamoyl]-6-fluoro-2,3-dihydro-1H-inden-1-yl]-5-methyl-isoxazole-3-carboxylic acid amide] | 31 | 98
